PubChem BioAssay AID248 (DTP/NCI, 2004)
“And” between values parts separate entries of the source, which are not always exact repeats. Identical values can stand only once. Toxic doses and inconclusive results are not listed. Cut-off read from the data, not from the text of the source: active = T/C of 150% or more; inactive = T/C below 125%.

Tested on: L1210 leukemia ip in BDF1 mice, survival T/C
Assay: NCI In Vivo Anticancer Drug Screen. Data for tumor model L1210 Leukemia (intraperitoneal) in B6D2F1 (BDF1) mice
Conditions: endpoint: mean survival time, higher = longer survival
Summary of the method: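 Read-out is survival time, reported as the treated-group measurement over the vehicle-control measurement.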

[1] = dose: 100.0 mg/kg/injection, schedule: Q04DX003 (ip), vehicle: saline
[2] = dose: 200.0 mg/kg/injection, schedule: Q04DX003 (ip), vehicle: saline
[3] = dose: 400.0 mg/kg/injection, schedule: Q04DX003 (ip), vehicle: saline
[4] = dose: 100.0 mg/kg/injection, schedule: Q01DX009 (ip), vehicle: Klucel (hydroxypropylcellulose) (HPC)
[5] = dose: 100.0 mg/kg/injection, schedule: Q04DX003 (ip), vehicle: Klucel (hydroxypropylcellulose) (HPC)
[6] = dose: 200.0 mg/kg/injection, schedule: Q01DX009 (ip), vehicle: Klucel (hydroxypropylcellulose) (HPC)
[7] = dose: 200.0 mg/kg/injection, schedule: Q04DX003 (ip), vehicle: Klucel (hydroxypropylcellulose) (HPC)
[8] = dose: 400.0 mg/kg/injection, schedule: Q01DX009 (ip), vehicle: Klucel (hydroxypropylcellulose) (HPC)
[9] = dose: 400.0 mg/kg/injection, schedule: Q04DX003 (ip), vehicle: Klucel (hydroxypropylcellulose) (HPC)
[10] = dose: 100.0 mg/kg/injection, schedule: Q01DX001 (ip), vehicle: saline
[11] = dose: 200.0 mg/kg/injection, schedule: Q01DX001 (ip), vehicle: saline
[12] = dose: 400.0 mg/kg/injection, schedule: Q01DX001 (ip), vehicle: saline
[13] = dose: 100.0 mg/kg/injection, schedule: Q04DX003 (ip), vehicle: saline with Tween-80
[14] = dose: 200.0 mg/kg/injection, schedule: Q04DX003 (ip), vehicle: saline with Tween-80
[15] = dose: 400.0 mg/kg/injection, schedule: Q04DX003 (ip), vehicle: saline with Tween-80
[16] = dose: 100.0 mg/kg/injection, schedule: Q01DX001 (ip), vehicle: carboxymethylcellulose (CMC)
[17] = dose: 200.0 mg/kg/injection, schedule: Q01DX001 (ip), vehicle: carboxymethylcellulose (CMC)
[18] = dose: 400.0 mg/kg/injection, schedule: Q01DX001 (ip), vehicle: carboxymethylcellulose (CMC)
[19] = dose: 100.0 mg/kg/injection, schedule: Q01DX009 (ip), vehicle: saline with Tween-80
[20] = dose: 200.0 mg/kg/injection, schedule: Q01DX009 (ip), vehicle: saline with Tween-80
[21] = dose: 400.0 mg/kg/injection, schedule: Q01DX009 (ip), vehicle: saline with Tween-80
[22] = dose: 12.5 mg/kg/injection, schedule: Q01DX009 (ip), vehicle: Klucel (hydroxypropylcellulose) (HPC)
[23] = dose: 25.0 mg/kg/injection, schedule: Q01DX009 (ip), vehicle: Klucel (hydroxypropylcellulose) (HPC)

Measured: T/C

CCN(CC)CC(C)OC(=O)c1ccc(N)cc1 (stereo not drawn)
inactive: [1] 103 % of control | [2] 101 % of control

CCOC(=O)c1ccc[n+]([O-])c1
inactive: [1] 94 % of control | [2] 95 % of control | [3] 94 % of control

CP(=S)(c1ccccc1)P(C)(=S)c1ccccc1 (stereo not drawn)
inactive: [4] 99 % of control | [5] 98 % of control | [6] 103 % of control | [7] 101 % of control | [8] 94 % of control | [9] 98 % of control

CC1(C)CC(C)(c2ccc(-n3c(-c4ccccc4)nc4ccccc4c3=O)cc2)c2ccccc2S1 (stereo not drawn)
inactive: [10] 91 % of control | [11] 91 % of control | [12] 87 % of control

C#CCOCC1CN(c2ccccc2)C(=O)O1 (stereo not drawn)
inactive: [4] 100 % of control | [5] 101 % of control | [6] 100 % of control | [7] 92 % of control | [8] 91 % of control | [9] 103 % of control

CCCCOP(=O)(NNP(=O)(OCCCC)OCCCC)OCCCC
inactive: dose: 100.0 mg/kg/injection, schedule: Q04DX002 (ip), vehicle: saline with Tween-80 108 % of control | dose: 200.0 mg/kg/injection, schedule: Q04DX002 (ip), vehicle: saline with Tween-80 116 % of control | dose: 400.0 mg/kg/injection, schedule: Q04DX002 (ip), vehicle: saline with Tween-80 105 % of control

COc1ccc(Cl)cc1NC1=CC(c2ccc(Cl)cc2)OC1=O (stereo not drawn)
inactive: [13] 102 % of control | [14] 100 % of control | [15] 91 % of control

CC(=O)Nc1cc2c(cc1[N+](=O)[O-])-c1ccccc1/C2=N\O
inactive: [16] 106 % of control | [17] 94 % of control | [18] 111 % of control

Cc1nc2c(=O)n(C)c(=O)n(C)c2n1C
inactive: dose: 50.0 mg/kg/injection, schedule: Q01DX009 (ip), vehicle: saline with Tween-80 101 % of control | [19] 98 % of control | [13] 100 % of control | [20] 100 % of control | [14] 98 % of control

CCCCOCN1CCCCC1
inactive: dose: 31.0 mg/kg/injection, schedule: Q01DX Z (ip), vehicle: carboxymethylcellulose (CMC) 95 % of control | dose: 62.5 mg/kg/injection, schedule: Q01DX Z (ip), vehicle: carboxymethylcellulose (CMC) 101 % of control | [13] 111 % of control | dose: 125.0 mg/kg/injection, schedule: Q01DX Z (ip), vehicle: carboxymethylcellulose (CMC) 105 % of control | [14] 102 % of control

COc1cccc(C(=O)O)c1OS(=O)(=O)c1ccccc1
inactive: [4] 98 % of control | [5] 91 % of control | [6] 95 % of control | [8] 93 % of control | [9] 94 % of control

CC(=N\O)/C(=N/O)c1ccc(O)cc1
inactive: dose: 5.0 mg/kg/injection, schedule: Q01DX001 (ip), vehicle: saline 97 % of control | dose: 10.0 mg/kg/injection, schedule: Q01DX001 (ip), vehicle: saline 100 % of control | dose: 20.0 mg/kg/injection, schedule: Q01DX001 (ip), vehicle: saline 97 % of control

C/C(O)=C/c1cc(N2CCCCC2)nc(=S)[nH]1
inactive: [5] 102 % of control | [7] 100 % of control | [9] 100 % of control

CCC(/C=C/C(C)C1CCC2C3CC=C4CC(O)CCC4(C)C3CCC12C)C(C)C (stereo not drawn) (tested in a mixture with another compound)
inactive: dose: 100.0 mg/kg/injection, schedule: Q01DX001 (ip), vehicle: water 98 % of control | [13] 89 % of control | [1] 103 % of control | dose: 200.0 mg/kg/injection, schedule: Q01DX001 (ip), vehicle: water 105 % of control and 94 % of control | [2] 91 % of control | [3] 91 % of control

COc1cc(CC#N)c(OC)cc1CC#N
inactive: [19] 94 % of control | [13] 89 % of control | [20] 89 % of control | [14] 89 % of control | [21] 99 % of control | [15] 88 % of control

O=c1[nH]cccc1[N+](=O)[O-]
inactive: [19] 95 % of control | [20] 90 % of control | [21] 95 % of control

C=CO
inactive: [10] 103 % of control | [11] 95 % of control | [12] 89 % of control

CC(C)(C)C1Sc2nc3ccccc3n2C1=O (stereo not drawn)
inactive: [22] 101 % of control | dose: 12.5 mg/kg/injection, schedule: Q04DX003 (ip), vehicle: Klucel (hydroxypropylcellulose) (HPC) 98 % of control | [23] 97 % of control | dose: 25.0 mg/kg/injection, schedule: Q04DX003 (ip), vehicle: Klucel (hydroxypropylcellulose) (HPC) 92 % of control | dose: 50.0 mg/kg/injection, schedule: Q01DX009 (ip), vehicle: Klucel (hydroxypropylcellulose) (HPC) 96 % of control | dose: 50.0 mg/kg/injection, schedule: Q04DX003 (ip), vehicle: Klucel (hydroxypropylcellulose) (HPC) 92 % of control

CCCCOP(=O)(O)OCCCC.[Cd]
inactive: dose: 3.0 mg/kg/injection, schedule: Q01DX009 (ip), vehicle: Klucel (hydroxypropylcellulose) (HPC) 96 % of control | dose: 6.0 mg/kg/injection, schedule: Q01DX009 (ip), vehicle: Klucel (hydroxypropylcellulose) (HPC) 96 % of control | dose: 12.0 mg/kg/injection, schedule: Q01DX009 (ip), vehicle: Klucel (hydroxypropylcellulose) (HPC) 95 % of control | [22] 96 % of control | [23] 94 % of control

c1cc2cc(c1)CCc1cccc(c1)CC2
inactive: [10] 100 % of control | [11] 106 % of control | [12] 94 % of control

ClCC1CNC(c2ccccc2)O1 (stereo not drawn)
inactive: dose: 12.5 mg/kg/injection, schedule: Q04DX003 (ip), vehicle: saline with Tween-80 96 % of control | dose: 25.0 mg/kg/injection, schedule: Q04DX003 (ip), vehicle: saline with Tween-80 101 % of control | dose: 50.0 mg/kg/injection, schedule: Q04DX003 (ip), vehicle: saline with Tween-80 98 % of control | [16] 95 % of control | [17] 93 % of control | [18] 101 % of control
